Assay results from US20230382909A1, “BICYCLIC COMPOUNDS” (Aligos Therapeutics, Inc., priority 2022, published 2023).

Assays:
HBV = assay: HBV-DNA antiviral assay using HepG2.117 cells; assay type: cell-based, HBV genotype D; details: Hepatitis B virus, HepG2.117, 72 h
Summary of the method: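 HepG2.117 cells (Tet-off, genotype D HBV genome) induced by doxycycline withdrawal, treated 3 days at 37 °C with 9 concentrations (4-fold dilution), 2% DMSO final. Intracellular HBV DNA quantified by qPCR against gBlock standard curve; inhibition relative to DMSO control.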

[1] = Cell viability by CellTiter-Glo 2.0 (intracellular ATP content) in HepG2.117 cells; assay type: cell-based; details: human, CellTiter-Glo 2.0, 3 days incubation
Summary of the method: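 HepG2.117 cells (stable genotype D HBV, Tet-off) exposed 3 days at 37° C to 9 concentrations (4-fold dilutions) without doxycycline, 2% DMSO final. Viability read by CellTiter-Glo 2.0 luminescence as % of DMSO control; CC50 from non-linear regression dose-response fit.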

Row | SMILES | EC50 (HBV) [µM] | CC50 at 3 days [1] [µM]
1 | Cc1cc(C)n(-c2nc3c(c(=O)n2-c2ccc(OC[C@H](C)O)nc2)C[C@@H](C)N(C(=O)c2ccc(Br)c(C(F)(F)F)c2)C3)n1 [Compound 28, (6R)-7-[4-bromo-3-(trifluoromethyl)benzoyl]-2-(3,5-dimethylpyrazol-1-yl)-3-[6-[(2S)-2-hydroxypropoxy]-3-pyridyl]-6-methyl-6,8-dihydro-5H-pyrido[3,4-d]pyrimidin-4-one] | < 0.05 | > 0.5
2 | Cc1cc(C)n(-c2nc3c(c(=O)n2-c2ccc(O[C@H]4C[C@H](O)C4)cc2)C[C@@H](C)N(C(=O)c2ccc(Br)c(C(F)(F)F)c2)C3)n1 [Compound 38, (R)-7-(4-bromo-3-(trifluoromethyl)benzoyl)-2-(3,5-dimethyl-1H-pyrazol-1-yl)-3-(4-((1r,3R)-3-hydroxycyclobutoxy)phenyl)-6-methyl-5,6,7,8-tetrahydropyrido[3,4-d]pyrimidin-4(3H)-one] | < 0.05 | > 0.5
